According to PubChem BioAssay (NCI):
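Each compound was tested at five concentrations against cells in 96-well plates for 48 hours. The concentration for full growth arrest is given as TGI.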

Key:
Test in all cases: NCI anticancer screen, dose series, 48 h
[1] = test system: UACC-62 melanoma
[2] = test system: RPMI-8226 leukemia
[3] = test system: CCRF-CEM leukemia
[4] = test system: NCI-H522 lung
[5] = test system: NCI-H23 lung
[6] = test system: MALME-3M melanoma
[7] = test system: SNB-19 CNS
[8] = test system: SNB-75 CNS
[9] = test system: MDA-MB-435
[10] = test system: SF-268 CNS
[11] = test system: HL-60(TB) leukemia
[12] = test system: IGROV1 ovarian
[13] = test system: U251 CNS
[14] = test system: UO-31 renal
[15] = test system: MDA-MB-231 breast
[16] = test system: OVCAR-5 ovarian
[17] = test system: T-47D breast
[18] = test system: TK-10 renal
[19] = test system: RXF 393 renal

| Compound | TGI [1] [µM] | TGI [2] [µM] | TGI [3] [µM] | TGI [4] [µM] | TGI [5] [µM] | TGI [6] [µM] | TGI [7] [µM] | TGI [8] [µM] | TGI [9] [µM] | TGI [10] [µM] | TGI [11] [µM] | TGI [12] [µM] | TGI [13] [µM] | TGI [14] [µM] | TGI [15] [µM] | TGI [16] [µM] | TGI [17] [µM] | TGI [18] [µM] | TGI [19] [µM] |
| --- | --- | --- | --- | --- | --- | --- | --- | --- | --- | --- | --- | --- | --- | --- | --- | --- | --- | --- | --- |
| O=C(/C=C\c1ccccc1)Oc1ccc(/C=C2\CCCCC2=O)cc1 | 0.136 | 50.6 | 27.2 | > 100 | > 100 | > 100 | > 100 | > 100 | 84.6 | > 100 | 35.2 | > 100 | > 100 | > 100 | > 100 | > 100 | > 100 | 43.2 | – |
| Cc1nc(-c2cc3c(ccc4ccccc43)oc2=O)cc2c1c(=O)oc1ccc3ccccc3c12 | > 100 | – | > 100 | > 100 | > 100 | > 100 | > 100 | – | > 100 | > 100 | > 100 | > 100 | > 100 | > 100 | > 100 | > 100 | > 100 | > 100 | > 100 |
| O=C1Oc2ccccc2C(=O)/C1=C/N1C(=O)N/C(=C\c2cccc(O)c2)C1=O | – | – | – | – | > 100 | – | > 100 | > 100 | > 100 | – | > 100 | > 100 | > 100 | > 100 | > 100 | > 100 | > 100 | > 100 | – |
| CN(C)/C=C(\C(=O)c1ccccc1)n1nc(-c2ccccc2)cc1-c1ccccc1 | > 10 | > 10 | > 10 | > 10 | > 10 | > 10 | > 10 | – | > 10 | > 10 | > 10 | > 10 | > 10 | – | > 10 | > 10 | > 10 | > 10 | > 10 |
| COc1ccc(OC)c(-c2nc3ccccc3c(=O)[nH]2)c1 | > 100 | > 100 | > 100 | – | > 100 | > 100 | > 100 | > 100 | > 100 | > 100 | – | > 100 | > 100 | > 100 | > 100 | > 100 | > 100 | – | > 100 |
| CN1C(=O)[C@@H]2N(CSC2(C)C)C1=S | > 100 | > 100 | – | > 100 | > 100 | – | > 100 | > 100 | > 100 | > 100 | – | > 100 | > 100 | > 100 | > 100 | > 100 | > 100 | > 100 | > 100 |
| O=C1c2cscc2C(=O)C1(O)O | > 100 | > 100 | 52.9 | 40.3 | 45.9 | 54.8 | > 100 | – | 99.7 | > 100 | 72.5 | > 100 | > 100 | 49.1 | > 100 | > 100 | 37.5 | > 100 | – |
